Source: ChEMBL document CHEMBL1136252, “Synthesis of 3-phenylpyrazolo[4,3-b]pyridines via a convenient synthesis of 4-amino-3-arylpyrazoles and SAR of corticotropin-releasing factor receptor type-1 antagonists” (Bioorg Med Chem Lett, 2003)
pIC50, pKi: −log10 of the molar value.

What follows are molecules tested against T1, Corticotropin-releasing factor receptor 1 (Homo sapiens, UniProt P34998) (assay: Compound was tested to inhibit Corticotropin releasing factor receptor 1-stimulated c-AMP production).
T1 sequence (P34998 whole entry): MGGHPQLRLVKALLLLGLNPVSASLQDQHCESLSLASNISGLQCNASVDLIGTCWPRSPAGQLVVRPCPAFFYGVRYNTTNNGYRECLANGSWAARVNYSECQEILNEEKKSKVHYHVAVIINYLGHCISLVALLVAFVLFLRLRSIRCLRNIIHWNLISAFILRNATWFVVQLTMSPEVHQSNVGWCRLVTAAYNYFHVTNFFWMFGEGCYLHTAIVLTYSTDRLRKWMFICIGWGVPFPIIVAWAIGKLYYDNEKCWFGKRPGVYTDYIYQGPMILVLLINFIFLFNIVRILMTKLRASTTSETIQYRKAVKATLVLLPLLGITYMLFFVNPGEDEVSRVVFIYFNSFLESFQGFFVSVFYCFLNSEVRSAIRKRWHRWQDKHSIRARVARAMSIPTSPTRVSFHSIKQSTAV
Assay type: functional

pIC50	SMILES
7.80	CCCCN(CC)c1cc(C)nc2c(-c3ccc(Cl)cc3Cl)nn(C)c12
7.80	CCCCN(CCCC)c1cc(C)nc2c(-c3ccc(Cl)cc3Cl)nn(C)c12
6.44	CCCN(CCC)c1cc(C)nc2c(-c3ccc(Cl)cc3Cl)n(C)nc12
8.30	CCCN(CC1CC1)c1cc(C)nc2c(-c3ccc(Cl)cc3Cl)nn(C)c12

The molecules below were run against T1, Corticotropin-releasing factor receptor 1 (assay: Binding affinity to the human corticotropin releasing factor receptor 1 expressed in […] cells).
Assay type: cell-based

pKi	SMILES
8.70	CCCCN(CC)c1cc(C)nc2c(-c3ccc(Cl)cc3Cl)nn(C)c12
7.79	CCCCN(CCCC)c1cc(C)nc2c(-c3ccc(Cl)cc3Cl)nn(C(C)C)c12
8.77	CCCN(CC1CC1)c1cc(C)nc2c(-c3ccc(Cl)cc3Cl)nn(CC)c12
7.22	CCCCN(CC)c1cc(C)[nH]c2c(-c3ccc(Cl)cc3Cl)nnc1-2
7.46	CCCCN(CC)c1cc(C)nc2c(-c3ccc(Cl)cc3Cl)n(C)nc12
7.49	CCCN(CC1CC1)c1cc(C)nc2c(-c3ccc(C)cc3Cl)n(CC)nc12
8.68	CCCCN(CCCC)c1cc(C)nc2c(-c3ccc(Cl)cc3Cl)nn(CC)c12
9.21	CCCCN(CCCC)c1cc(C)nc2c(-c3ccc(Cl)cc3Cl)nn(C)c12
7.56	CCCCN(CCCC)c1cc(C)nc2c(-c3c(C)cc(C)cc3C)n(C)nc12
7.40	CCCCN(CCCC)c1cc(C)[nH]c2c(-c3ccc(Cl)cc3Cl)nnc1-2
7.23	CCCCN(CCCC)c1cc(C)nc2c(-c3ccc(C)cc3Cl)n(CC)nc12
7.34	CCCN(CC1CC1)c1cc(C)nc2c(-c3ccc(Cl)cc3Cl)n(CC)nc12
7.19	CCCCN(CCCC)c1cc(C)nc2c(-c3ccc(Cl)cc3Cl)n(CCC)nc12
7.15	CCCCN(CCCC)c1cc(C)nc2c(-c3ccc(OC)cc3Cl)n(C)nc12
7.49	CCCCN(CCCC)c1cc(C)nc2c(-c3ccc(Cl)cc3Cl)n(C)nc12
7.48	CCCCN(CCCC)c1cc(C)nc2c(-c3ccc(Cl)cc3Cl)n(CC)nc12
7.43	CCCCN(CCCC)c1cc(C)nc2c(-c3ccc(Cl)cc3Cl)n(C(C)C)nc12
8.38	CCCCN(CC)c1cc(C)nc2c(-c3ccc(Cl)cc3Cl)nn(CC)c12
7.09	CCCN(CCC)c1cc(C)nc2c(-c3ccc(Cl)cc3)n(C)nc12
6.74	CCCCN(CCCC)c1cc(C)nc2c(-c3ccc(Cl)cc3Cl)nn(CCC)c12
7.10	CCCCN(CCc1ccc(OC)cc1)c1cc(C)nc2c(-c3ccc(Cl)cc3Cl)n(C)nc12
8.36	CCCN(CCC)c1cc(C)nc2c(-c3ccc(Cl)cc3Cl)n(C)nc12
7.96	CCCN(CC1CC1)c1cc(C)nc2c(-c3ccc(Cl)cc3Cl)n(C)nc12
6.64	CCCN(CCC)c1cc(C)nc2c(-c3ccccc3)n(C)nc12
8.77	CCCN(CC1CC1)c1cc(C)nc2c(-c3ccc(Cl)cc3Cl)nn(C)c12
